# Where two headings read alike, the source gives them in different places.
# How the values were obtained:
# [1] = biological target: SARS-CoV-2 NSP3 macrodomain (Mac1) (Severe acute respiratory syndrome coronavirus 2, UniProt P0DTD1); assay: biochemical; assay type: binding
# [2] = biological target: SARS-CoV-2 NSP3 macrodomain (Mac1), P43 crystal form (Severe acute respiratory syndrome coronavirus 2, UniProt P0DTD1); assay type: binding; details: for Isomers modeled: stereoisomer(s) of ligand modeled in Mac1 crystal structure
# [3] = Single dose, concentration 200 μM, read-out: Average % competition
# [4] = preliminary screen, compound at 200 μM, mean of 3-4 technical replicates, read-out: % competition in HTRF assay
# [5] = ligand modeling in Mac1 crystal soak
# [6] = SARS CoV-2 macrodomain HTRF assay
# [7] = SARS CoV-2 macrodomain HTRF assay, dose-response, read-out: IC50
# [8] = SARS CoV-2 macrodomain HTRF assay, dose-response, read-out: Ki
# [9] = Single dose, concentration 200 μM, read-out: SARS CoV-2 macrodomain HTRF assay: Average % competition
# [10] = from SARS CoV-2 macrodomain HTRF assay
SMILES,"inhibition at 200 µM [1, 3]","inhibition at 200 µM [1, 4]","PanDDA run, TFA/DMSO background map: 1-BDC ([2]; crystal soak 10 mM)","PanDDA run, TFA/DMSO background map: Hit ([2]; crystal soak 10 mM)","Number of isomers bound [2, 5]",Isomers modeled [2],also measured
OCC(Cc1c[nH]c2ccccc12)Nc1ncnc2[nH]ccc12 (stereo not drawn) [AVI-3650],71%,71%,0.11,TRUE,2,"R,S",
OCC(Nc1ncnc2[nH]ccc12)C1CC1 (stereo not drawn) [AVI-3651],,,0.16,TRUE,1,,"Ligand efficiency (binding enery per heavy atom) [1, 6]: 0.38; IC50 [1, 7]: 48 µM; Ki [1, 8]: 45 µM"
OC(c1ccccc1)C1CCCN1c1ncnc2[nH]ccc12 (stereo not drawn) [AVI-3652],,35%,0.16,TRUE,1,,"inhibition at 200 µM [1, 9]: 35%"
CC1CCN(c2ncnc3[nH]ccc23)C1CO (stereo not drawn) [AVI-3655],,75%,0.18,TRUE,1,,"inhibition at 200 µM [1, 9]: 75%"
CO[C@@H]1C[C@H](CO)N(c2ncnc3[nH]ccc23)C1 [AVI-3656],,41%,,,1,,"inhibition at 200 µM [1, 9]: 41%"
Cn1cc(CC(CO)Nc2ncnc3[nH]ccc23)cn1 (stereo not drawn) [AVI-3657],24%,24%,0.09,TRUE,1,,
OCC(CC1OCCO1)Nc1ncnc2[nH]ccc12 (stereo not drawn) [AVI-3658],11%,11%,,,1,,
OCC(Nc1ncnc2[nH]ccc12)c1ccco1 (stereo not drawn) [AVI-3659],55%,55%,0.08,TRUE,1,,
OCC(CC1CCCO1)Nc1ncnc2[nH]ccc12 (stereo not drawn) [AVI-3660],18%,18%,0.17,TRUE,1,,
OC1CCN(c2ncnc3[nH]ccc23)C1 (stereo not drawn) [AVI-3661],,11%,0.12,TRUE,,,"inhibition at 200 µM [1, 9]: 11%; Number of isomers bound ([2]; ligand modeling in Mac1 crystal structure): 1"
OCC(CC1CC1)Nc1ncnc2[nH]ccc12 (stereo not drawn) [AVI-3662],44%,44%,0.09,TRUE,1,,
O[C@H]1CC[C@@H]2CCN(c3ncnc4[nH]ccc34)[C@@H]21 [AVI-3664],,,0.15,TRUE,1,SRS,"IC50 ([1]; dose-response, read-out: SARS CoV-2 macrodomain HTRF assay: IC50): 28 µM; Ki ([1]; dose-response, read-out: SARS CoV-2 macrodomain HTRF assay: Ki): 26 µM; Ligand efficiency (binding enery per heavy atom) [1, 10]: 0.35"
OCC(CC1CCOC1)Nc1ncnc2[nH]ccc12 (stereo not drawn) [AVI-3665],11%,11%,0.15,TRUE,1,,
CCC(O)[C@H]1CCCN1c1ncnc2[nH]ccc12 (stereo partly drawn) [AVI-3666],,,,,1,,"fold decrease in binding affinity compared to AVI-4062 [1]: ~ 4 fold; Ligand efficiency (binding enery per heavy atom) [1, 10]: 0.34"
CCC(Nc1ncnc2[nH]ccc12)C(C)(C)O (stereo not drawn) [AVI-3667],51%,51%,0.07,TRUE,1,,
CC(c1ccccc1)C(CO)Nc1ncnc2[nH]ccc12 (stereo not drawn) [AVI-3669],,,0.09,TRUE,1,,"fold more potent / increased binding affinity than AVI-313 parent ([1]; HTRF IC50 compared with AVI-313): > 10 fold; Ligand efficiency (binding enery per heavy atom) [1, 6]: 0.33; Ki [1, 8]: 8.1 µM; Ligand efficiency ([1]; binding energy per heavy atom): 0.33; IC50 ([1]; read-out: HTRF IC50): 8.7 µM"
O=C(O)C(F)(F)F.OCC1(Nc2ncnc3[nH]ccc23)CCC1 [AVI-3670],,,0.12,TRUE,1,"achiral,achiral","Ligand efficiency (binding enery per heavy atom) [1, 6]: 0.38; IC50 [1, 7]: 39 µM; Ki [1, 8]: 36 µM"
CN(C)CC(CO)Nc1ncnc2[nH]ccc12 (stereo not drawn) [AVI-3671],< 10%,< 10%,0.13,TRUE,1,,
OCC(Cc1nccs1)Nc1ncnc2[nH]ccc12 (stereo not drawn) [AVI-3673],38%,38%,0.15,TRUE,1,,

SMILES,"inhibition at 200 µM [1, 3]","inhibition at 200 µM [1, 4]","PanDDA run, TFA/DMSO background map: 1-BDC ([2]; crystal soak 10 mM)","PanDDA run, TFA/DMSO background map: Hit ([2]; crystal soak 10 mM)","Number of isomers bound [2, 5]",Isomers modeled [2],also measured
Cc1ccccc1CC(CO)Nc1ncnc2[nH]ccc12 (stereo not drawn) [AVI-3674],32%,,0.15,TRUE,1,,
OCC(CN1CCCCC1)Nc1ncnc2[nH]ccc12 (stereo not drawn) [AVI-3677],< 10%,< 10%,0.18,TRUE,1,,
OCC(Nc1ncnc2[nH]ccc12)C1CCOC1 (stereo not drawn) [AVI-3679],35%,35%,0.11,TRUE,1,,
O=C(O)C(F)(F)F.OCC12CC(CN1c1ncnc3[nH]ccc13)C2 [AVI-3681],,54%,0.12,TRUE,1,achiral,"inhibition at 200 µM [1, 9]: 54%"
Cc1ccc(CC(CO)Nc2ncnc3[nH]ccc23)cc1 (stereo not drawn) [AVI-3683],14%,14%,,,2,"S,R",
Cc1ccc(CC(CO)Nc2ncnc3[nH]ccc23)cc1C (stereo not drawn) [AVI-3684],< 10%,< 10%,,,2,"R,S",
OCC1CCCN1c1ncnc2[nH]ccc12 (stereo not drawn) [AVI-3685],,48%,,,1,,"fold decrease in affinity compared to AVI-607 ([1]; HTRF): > 20 fold; inhibition at 200 µM [1, 9]: 47%"
OCC(Cc1ccc(I)cc1)Nc1ncnc2[nH]ccc12 (stereo not drawn) [AVI-3686],< 10%,< 10%,0.19,TRUE,2,"S,R",
O=C(O)C(F)(F)F.OCC1(Nc2ncnc3[nH]ccc23)CC1 [AVI-3688],72%,72%,0.17,TRUE,1,achiral,
OCC(CC1CCCCC1)Nc1ncnc2[nH]ccc12 (stereo not drawn) [AVI-3690],66%,68%,,,1,,
OCC(CC1CCCC1)Nc1ncnc2[nH]ccc12 (stereo not drawn) [AVI-3691],52%,53%,0.1,TRUE,1,,
O=C(O)C(F)(F)F.OCC1(Nc2ncnc3[nH]ccc23)CCCC1 [AVI-3692],,,0.11,TRUE,1,achiral,"Ligand efficiency (binding enery per heavy atom) [1, 6]: 0.35; IC50 [1, 7]: 49 µM; Ki [1, 8]: 46 µM"
OCC(Nc1ncnc2[nH]ccc12)C1CCc2ccccc21 (stereo not drawn) [AVI-3693],78%,78%,,,2,"RR,SR",
CCC(CC)(CO)Nc1ncnc2[nH]ccc12 [AVI-3695],,,,,1,"achiral,achiral","Ligand efficiency (binding enery per heavy atom) [1, 6]: 0.36; IC50 [1, 7]: 40 µM; Ki [1, 8]: 37 µM"
OCC(Cc1ccccn1)Nc1ncnc2[nH]ccc12 (stereo not drawn) [AVI-3696],34%,34%,,,2,"R,S",
CCC(C)(CO)Nc1ncnc2[nH]ccc12 (stereo not drawn) [AVI-3697],,,,,1,,"Ligand efficiency (binding enery per heavy atom) [1, 6]: 0.39; IC50 [1, 7]: 36 µM; Ki [1, 8]: 34 µM"
OCC(O)C1CCCN1c1ncnc2[nH]ccc12 (stereo not drawn) [AVI-3701],,54%,,,1,,"inhibition at 200 µM [1, 9]: 54%; PanDDA run, TFA/DMSO background map: 1-BDC ([2]; soak concentration 10 mM): 0.16; PanDDA run, TFA/DMSO background map: Hit ([2]; soak concentration 10 mM): TRUE"
O=C(O)C(F)(F)F.OC[C@H]1CC2(CN1c1ncnc3[nH]ccc13)OCCO2 [AVI-3702],,17%,,,1,,"inhibition at 200 µM [1, 9]: 17%; PanDDA run, TFA/DMSO background map: 1-BDC ([2]; soak concentration 10 mM): 0.13; PanDDA run, TFA/DMSO background map: Hit ([2]; soak concentration 10 mM): TRUE"
OCC(Cc1cncs1)Nc1ncnc2[nH]ccc12 (stereo not drawn) [AVI-3703],28%,28%,,,1,,"PanDDA run, TFA/DMSO background map: 1-BDC ([2]; soak concentration 10 mM): 0.1; PanDDA run, TFA/DMSO background map: Hit ([2]; soak concentration 10 mM): TRUE"

# Reference: publication doi:10.1101/2024.08.25.609621 (bioRxiv, 2024)
